Test results from patent publication US8288367B2, “Substituted estratriene derivatives as 17BETA HSD inhibitors” (Solvay Pharmaceuticals GmBH, priority 2006, dated 2012).

Columns and labels:
[1] = target: T1, recombinant human 17β-HSD2 (Homo sapiens, UniProt P37059); test: Recombinant 17β-HSD2 assay (HPLC, 3H-estradiol conversion); format: biochemical; conditions: 50 nM estradiol, 1 mM β-NAD, read-out: Inhibition of rec. 17β-HSD2; for inhibition at 0.1 µM: 100 nM compound; for inhibition at 1 µM: 1 μm compound
T1 construct: made in house; host or cells: Sf9 insect cells (baculovirus, Bac to Bac Expression System)
T1 sequence (P37059 1-387): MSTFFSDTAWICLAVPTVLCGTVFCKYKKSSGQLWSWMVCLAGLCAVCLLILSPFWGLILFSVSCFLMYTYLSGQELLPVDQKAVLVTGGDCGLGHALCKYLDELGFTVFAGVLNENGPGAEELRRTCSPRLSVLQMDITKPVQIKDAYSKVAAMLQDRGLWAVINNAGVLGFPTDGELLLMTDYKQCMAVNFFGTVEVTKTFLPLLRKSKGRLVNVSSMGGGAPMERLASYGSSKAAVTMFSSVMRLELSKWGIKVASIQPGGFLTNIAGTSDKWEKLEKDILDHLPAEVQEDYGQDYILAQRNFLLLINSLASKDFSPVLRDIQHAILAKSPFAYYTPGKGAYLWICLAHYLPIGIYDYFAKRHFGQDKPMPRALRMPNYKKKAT
Procedure: 17β-HSD1 or 17β-HSD2 purification: Recombinant 17β-HSD1 and 17β-HSD2 baculoviruses were generated by the “Bac to Bac Expression System” (Invitrogen). Recombinant 17β-HSD1 or 17β-HSD2 bacmids were transfected to Sf9 insect cells using “Cellfectin Reagent” (Invitrogen). 60 h later cells were harvested; the fractions including 17β-HSD1 or 17β-HSD2 were isolated as described by Puranen et al. (1994). Aliquots were stored frozen until determination of enzymatic activity. Recombinant 17β-HSD2 assay: Recombinant 17β-HSD2 assay was performed as described for 17β-HSD1 but with following modifications: 6 μg/ml of recombinant protein homogenate, 50 nM Estradiol (Sigma, E8875) as a substrate, 800 000 cpm/ml ^3H-estradiol (PerkinElmer, NET317) as a tracer substrate and 1 mM β-NAD (Sigma N7004) as a co-factor were used. Total radioactivity for estrone and estradiol were determined in each sample and percent inhibition of estrone conversion by the respective inhibitor was calculated. For the calculation of % inhibition the following formula was used: [formula] Percent inhibition was calculated as follows: % inhibition=100−% conversion

17β-HSD3 enzyme = target: T2, 17β-HSD3 enzyme (Homo sapiens, UniProt P37058); test: Inhibition of 17β-HSD type 3 enzyme in MCF-7 cells stably expressing 17β-HSD3 (HPLC); format: cell-based; conditions: MCF7, MCF-7 cells expressing 17β-HSD3, 2 nM androstenedione; for inhibition at 1 µM: 1 μM compound; for inhibition at 10 µM: 10 μM compound
T2 construct: expressed in transfected cells; host or cells: MCF-7 cell lines stably expressing 17β-HSD3
T2 sequence (P37058 1-310): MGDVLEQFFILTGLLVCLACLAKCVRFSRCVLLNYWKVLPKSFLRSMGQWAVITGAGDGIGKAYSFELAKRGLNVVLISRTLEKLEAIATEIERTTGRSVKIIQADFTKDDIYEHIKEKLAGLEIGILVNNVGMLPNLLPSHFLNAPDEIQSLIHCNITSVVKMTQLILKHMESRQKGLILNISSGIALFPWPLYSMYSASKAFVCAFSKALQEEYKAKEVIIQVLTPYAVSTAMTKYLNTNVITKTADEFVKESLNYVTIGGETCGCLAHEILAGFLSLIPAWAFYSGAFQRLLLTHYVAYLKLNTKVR
Procedure: The compounds were screened in respect of 17β-HSD3 enzyme activity in vitro on established MCF-7 cell lines, each stably expressing the 17β-HSD3 enzyme. The interconversion of substrate by 17β-HSD3 and the 17β-HSD3 inhibiting activity of chemical compounds in these cell lines were detected by HPLC system.
Varying amounts of the test compounds were incubated in the growth medium of the 17β-HSD3 expressing cells together tritium labeled androstenedione (2 nM). The medium samples were removed after exact incubation time and the reaction is stopped by trichloroacetic acid (TCA). The samples were analyzed by HPLC-coupled flow scintillation analysis.
Conversion: The 17β-HSD3 inhibiting activity of an individual test compound was calculated by comparing the conversion of a control sample without any test compound (referred to as “Negative Control”) to the (reduced) conversion of the test sample containing the particular compound to be tested (referred to as “Test Sample”).

[2] = target: T3, recombinant human 17β-HSD1 (Homo sapiens, UniProt P14061); test: Recombinant 17β-HSD1 assay (HPLC, 3H-estrone conversion); format: biochemical; conditions: 30 nM estrone, 1 mM NADPH, 30 min RT, read-out: Inhibition of rec. 17β-HSD1; for inhibition at 0.1 µM: 100 nM compound; for inhibition at 1 µM: 0.5 h, 1 μm compound
T3 construct: made in house; host or cells: Sf9 insect cells (baculovirus, Bac to Bac Expression System)
T3 sequence (P14061 1-328): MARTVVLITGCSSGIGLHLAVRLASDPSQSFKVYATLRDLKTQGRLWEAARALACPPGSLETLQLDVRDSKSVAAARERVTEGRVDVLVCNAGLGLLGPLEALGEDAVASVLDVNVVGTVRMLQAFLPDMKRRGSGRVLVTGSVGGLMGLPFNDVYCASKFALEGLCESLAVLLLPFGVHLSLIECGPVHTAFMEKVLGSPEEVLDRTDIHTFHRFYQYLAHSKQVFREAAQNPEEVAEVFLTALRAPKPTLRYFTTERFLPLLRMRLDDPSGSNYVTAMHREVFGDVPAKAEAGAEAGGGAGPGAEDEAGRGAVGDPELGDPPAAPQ
Procedure: 17β-HSD1 or 17β-HSD2 purification: Recombinant 17β-HSD1 and 17β-HSD2 baculoviruses were generated by the “Bac to Bac Expression System” (Invitrogen). Recombinant 17β-HSD1 or 17β-HSD2 bacmids were transfected to Sf9 insect cells using “Cellfectin Reagent” (Invitrogen). 60 h later cells were harvested; the fractions including 17β-HSD1 or 17β-HSD2 were isolated as described by Puranen et al. (1994). Aliquots were stored frozen until determination of enzymatic activity.
Recombinant 17β-HSD1 assay: Recombinant protein homogenate (0.1 μg/ml) was incubated in 20 mM KH2PO4 pH 7.4 reaction buffer, including protease inhibitors (Complete Protease Inhibitor Cocktail tablet, Roche Diagnostics, 1697498), with 30 nM estrone (Sigma, E9750) as substrate, 800 000 cpm/ml ^3H-estrone (PerkinElmer, NET319001MC) as a tracer substrate, and 1 mM NADPH (Sigma, N1630) as a co-factor for 30 min at RT, in the presence of potential inhibitors at concentrations of 1 μM or 0.1 μM. Inhibitor stock solutions were prepared in DMSO. The enzyme reaction was stopped by addition of trichloroacetic acid (1% final concentration). Samples were centrifuged in a microtiter plate at 4000 rpm for 10 min. Supernatants were applied to reverse phase HPLC on a Waters Symmetry C18 column, equipped with a Waters Sentry Guard column. Isocratic HPLC runs were performed at RT at a flow rate of 1 ml/min of acetonitrile:water 48:52 as running solvent. Radioactivity was monitored in the eluate by a Packard Flow Scintillation Analyzer. Total radioactivity for estrone and estradiol were determined in each sample and percent inhibition of estradiol conversion by the respective inhibitor was calculated
For the calculation of % inhibition the following formula was used:
[formula] Percent inhibition was calculated as follows: % inhibition=100−% conversion

Row | Compound | inhibition at 0.1 µM [1] | inhibition at 1 µM [1] | inhibition at 1 µM (17β-HSD3 enzyme) | inhibition at 10 µM (17β-HSD3 enzyme) | inhibition at 0.1 µM [2] | inhibition at 1 µM [2]
1 | C[C@]12CC[C@@H]3c4ccc(B(O)O)cc4CC[C@H]3[C@@H]1[C@@H](CCCC(=O)Nc1ccc3c(c1)OCO3)CC2=O [Compound 13, [15alpha-[4-(1,3-benzodioxol-5-ylamino)-4-oxobutyl]-17-oxoestra-1(10),2,4-trien-3-yl]boronic acid] | -7.6% | 2% | 18% | 22% | 27% | 52%
2 | C[C@]12CC[C@@H]3c4ccc(B(O)O)cc4CC[C@H]3[C@@H]1[C@@H](CCCC(=O)NCc1cccnc1)CC2(F)F [Compound 53, [17,17-difluoro-15alpha-{4-oxo-4-[(pyridin-3-ylmethyl)amino]butyl}estra-1(10),2,4-trien-3-yl]boronic acid] | 5% | 8.6% | 4% | 50% | 19% | 50%
3 | Cc1cccc2c(CCNC(=O)CC[C@@H]3CC(F)(F)[C@@]4(C)CC[C@@H]5c6ccc(B(O)O)cc6CC[C@H]5[C@H]34)c[nH]c12 [Compound 67, [17,17-difluoro-15beta-(3-{[2-(7-methyl-1H-indol-3-yl)ethyl]amino}-3-oxopropyl)estra-1(10),2,4-trien-3-yl]boronic acid] | 10% | 15.8% | 40% | 84% | 47% | 66%
4 | C[C@]12CC[C@@H]3c4ccc(B(O)O)cc4CC[C@H]3[C@@H]1[C@@H](CCCC(=O)N1CCCCC1)CC2=O [Compound 20, [17-oxo-15alpha-(4-oxo-4-piperidin-1-ylbutyl)estra-1(10),2,4-trien-3-yl]boronic acid] | – | – | 15% | 57% | – | –
5 | CCN(CC)C(=O)CC[C@@H]1CC(F)(F)[C@@]2(C)CC[C@@H]3c4ccc(B(O)O)cc4CC[C@H]3[C@H]12 [Compound 71, [15beta-[3-(diethylamino)-3-oxopropyl]-17,17-difluoroestra-1(10),2,4-trien-3-yl]boronic acid] | 7.9% | 16.3% | 31% | 60% | 78% | 85%
6 | C[C@]12CC[C@@H]3c4ccc(B(O)O)cc4CC[C@H]3[C@@H]1[C@@H](CCCC(=O)NC1CCCCC1)CC2=O [Compound 17, [15alpha-[4-(cyclohexylamino)-4-oxobutyl]-17-oxoestra-1(10),2,4-trien-3-yl]boronic acid] | -5.4% | 1.8% | 6% | 45% | 24% | 31%
7 | C[C@]12CC[C@@H]3c4ccc(Nc5ccc6c(c5)S(=O)(=O)C=C6)cc4CC[C@H]3[C@@H]1[C@@H](CCCC(=O)N1CCOCC1)CC2=O [Compound 91, 3-[(1,1-dioxido-1-benzothien-6-yl)amino]-15alpha-(4-morpholin-4-yl-4-oxobutyl)estra-1(10),2,4-trien-17-one] | 0.7% | 5.7% | 7% | 52% | 36% | 69%
8 | C[C@]12CC[C@@H]3c4ccc(B(O)O)cc4CC[C@H]3[C@@H]1[C@H](CCC(=O)NCc1ccccc1)CC2(F)F [Compound 63, [15beta-[3-(benzylamino)-3-oxopropyl]-17,17-difluoroestra-1(10),2,4-trien-3-yl]boronic acid] | 12.8% | 16.9% | 41% | 88% | 51% | 66%
9 | C[C@]12CC[C@@H]3c4ccc(NCc5ccccc5)cc4CC[C@H]3[C@@H]1[C@@H](CCCC(=O)N1CCOCC1)CC2=O [Compound 98, 3-(benzylamino)-15alpha-(4-morpholin-4-yl-4-oxobutyl)estra-1(10),2,4-trien-17-one] | – | – | 15% | 48% | – | –
10 | Cc1cnc(NC(=O)CC[C@@H]2CC(F)(F)[C@@]3(C)CC[C@@H]4c5ccc(C(N)=O)cc5CC[C@H]4[C@H]23)s1 [Compound 8, 17,17-difluoro-15beta-{3-[(5-methyl-1,3-thiazol-2-yl)amino]-3-oxopropyl}estra-1(10),2,4-triene-3-carboxamide] | – | – | 4% | 46% | – | –
11 | C[C@]12CC[C@@H]3c4ccc(B(O)O)cc4CC[C@H]3[C@@H]1[C@@H](CCCC(=O)N1CCCCC1)CC2(F)F [Compound 57, [17,17-difluoro-15alpha-(4-oxo-4-piperidin-1-ylbutyl)estra-1(10),2,4-trien-3-yl]boronic acid] | – | – | 28% | 78% | – | –
12 | C[C@]12CC[C@@H]3c4ccc(B(O)O)cc4CC[C@H]3[C@@H]1[C@H](CCC(=O)NCc1ccc3c(c1)OCO3)CC2(F)F [Compound 60, [15beta-{3-[(1,3-benzodioxol-5-ylmethyl)amino]-3-oxopropyl}-17,17-difluoroestra-1(10),2,4-trien-3-yl]boronic acid] | 9.5% | 12.5% | 28% | 67% | 46% | 71%
